Source: patent publication US9598431B1, “Compounds useful for inhibiting ROR-gamma-t” (Eli Lilly and Company, priority 2015, dated 2017)
Read-outs that look alike come from different tables or passages of the source.

Legend:
[1] = tested on: IL-17 secretion in PBMC; assay: PBMC IL-17 secretion ELISA; assay type: cell-based; conditions: anti-CD3/anti-CD28/IL-23 stimulated human PBMC, mean ± SEM, read-out: hPBMC IL-17 ELISA
Protocol: Following the incubation period the plates are spun at 200×g for five minutes. Supernatants are diluted 1:1 with equal volume 1% BSA/PBS and tested for IL-17 with a human IL-17 ELISA kit from R&D system (catalog #D317E) according to the protocol provided with the kit with one exception—the colorimetric substrate OPD (o-phenylenediamine dihydrochloride, Sigma Cat #P6912) is used instead of the substrate supplied in the kit. Absorbance at 492 nm is measured with the Envision multi-label plate reader. A492 values are converted to concentration of IL-17 based on the IL-17 standard curve as shown below:
pg/mL IL-17=EC50*[[(Top−Bottom)/(A492−Bottom)]−1](1/−Hill). IC50's for inhibition of IL-17 secretion is calculated based on converted values using a standard 4-parameter fit with maximum inhibition determined from the average values of wells with no added stimulants nor compounds and minimum inhibition from the average values of wells with stimulants alone and no added compound.

[2] = tested on: GPI induced arthritis in DBA/1 mice; assay: Glucose-6-phosphate isomerase (GPI) induced arthritis model; assay type: in vivo, mouse; conditions: male DBA/1 mice, 1000 mg/Kg orally once daily
Protocol: The GPI induced arthritis model is adapted from K. Iwanami et al Arthritis Rheumatism 58, 754-763, 2008 and D. Schubert et al. J Immunology 172, 4503-4509, 2004. Mice (8-9 week old male DBA/1 mice) (Harlan) are randomly assigned into treatment groups based on body weights collected on the day of immunization (day 0). On the day of immunization (day 0), a 1:1 (v:v) mixture of recombinant human GPI (diluted to 4 mg/mL in PBS, Gibco) and complete Freund's adjuvant (CFA, Sigma) is mixed on a high speed homogenizer (Omni) for 40 minutes in a cold room. A final concentration of 2 mg/mL GPI is achieved in the emulsion. Mice are injected at the base of the tail (2 sites of injection, subcutaneously, 100 μL each site) with the GPI emulsion. Test compounds are dosed orally starting on the same day as immunization (day 0). Starting on day 0, each paw is scored for severity of joint swelling based on a 0 to 3 scoring system (See K. Iwanami et al Arthritis Rheumatism 58, 754-763, 2008. The clinical score represents the total score of all 4 paws (maximum score=12). Clinical scores are assessed on days 0, 2, 4, 7, 8, 9, 10, 11, 12, 14, 16, 18, and 21.
The AUC is calculated by a trapezoid method for clinical score over time from the day of immunization (day 0) to day 21. Test p-values were derived from Student's t-test.

CCS(=O)(=O)c1ccc(CNC(=O)c2cc3c(s2)C2(CCN(C(C)c4cnc(C(F)(F)F)nc4)CC2)O[C@H](C)C3)nc1 (single isomer, unassigned; isomer 1) [Example 4, (5R′)—N-{[5-(Ethylsulfonyl)pyridine-2-yl]methyl}-5′-methyl-1-{1-[2-(trifluoromethyl)pyrimidin-5-yl]ethyl}-4′,5′-dihydrospiro[piperidine-4,7′thieno[2,3-C]pyran]-2′-carboxamide isomer 1]
IC50 ([1]; 48 hours): 106 nM

CCS(=O)(=O)c1ccc(CNC(=O)c2cc3c(s2)C2(CCN(C(C)c4cnc(C(F)(F)F)nc4)CC2)O[C@H](C)C3)nc1 (single isomer, unassigned; isomer 2) [Example 5, (5R′)—N-{[5-(Ethylsulfonyl)pyridine-2-yl]methyl}-5′-methyl-1-{1-[2-(trifluoromethyl)pyrimidin-5-yl]ethyl}-4′,5′-dihydrospiro[piperidine-4,7′thieno[2,3-C]pyran]-2′-carboxamide isomer 2]
IC50 ([1]; 48 hours): 30.5 ± 29.3 nM

CCS(=O)(=O)c1ccc(CNC(=O)c2cc3c(s2)C2(CCN(C(C)c4cnc(C(F)(F)F)nc4)CC2)OC(C)C3)nc1 (centres unmarked) [Example 1, N-{[5-(Ethylsulfonyl)pyridine-2-yl]methyl}-5′-methyl-1-{1-[2-(trifluoromethyl)pyrimidin-5-yl]ethyl}-4′,5′-dihydrospiro[piperidine-4,7′thieno[2,3-C]pyran]-2′-carboxamide]
IC50 ([1]; Homo sapiens, PBMC, 48 h): 77.3 nM

CCS(=O)(=O)c1ccc(CNC(=O)c2cc3c(s2)C2(CCN([C@@H](C)c4cnc(C(F)(F)F)nc4)CC2)O[C@@H](C)C3)nc1 [Example 2, (5S′)—N-{[5-(Ethylsulfonyl)pyridine-2-yl]methyl}-5′-methyl-1-{(1S)-1-[2-(trifluoromethyl)pyrimidin-5-yl]ethyl}-4′,5′-dihydrospiro[piperidine-4,7′thieno[2,3-C]pyran]-2′-carboxamide]
IC50 ([1]; Homo sapiens, PBMC, 48 h): 33.7 ± 33.1 nM

CCS(=O)(=O)c1ccc(CNC(=O)c2cc3c(s2)C2(CCN([C@H](C)c4cnc(C(F)(F)F)nc4)CC2)O[C@@H](C)C3)nc1 [Example 3, (5S′)—N-{[5-(Ethylsulfonyl)pyridine-2-yl]methyl}-5′-methyl-1-{(1R)-1-[2-(trifluoromethyl)pyrimidin-5-yl]ethyl}-4′,5′-dihydrospiro[piperidine-4,7′thieno[2,3-C]pyran]-2′-carboxamide]
IC50 ([1]; Homo sapiens, PBMC, 48 h): 20 ± 12.6 nM
severity of paw swelling and mean clinical scores ([2]; compared to the vehicle group): reduces severity of paw swelling and maintains lower mean clinical scores
reduction in clinical score AUC ([2]; day 0 to day 21, compared to the vehicle group): 75%
Clinical Score AUC (mean ± SEM) ([2]; day 0 to day 21, n=8/group): 22.20 ± 8.68
